From patent US9346820B2, “HIV-1 protease inhibitors having gem-di-fluoro bicyclic P2-ligands” (priority 2013, dated 2016) come the findings set out here.

Assay type in all cases: cell-based
The subject of one data set is HIV-1DRV^RP20. Briefly: Antiviral activity against DRV-resistant variant, passage 20. As to conditions: Human immunodeficiency virus 1, read-out: EC50 against HIV-1DRV^RP20.
Another data set has as its system HIV-1NL4-3. The data set is described as follows: In vitro selection of PI-resistant HIV-1 variants in MT-4 cells with sequencing of the protease-encoding region. From the text: MT-4 cells ([…]) were exposed to HIV-1NL4-3 (500 TCID50) and cultured in the presence of various PIs at an initial concentration of its EC50 value. Viral replication was monitored by the determination of the amount of p24 Gag produced by MT-4 cells. The culture supernatants were harvested on day 7 and used to infect fresh MT-4 cells for the next round of culture in the presence of increasing concentrations of each drug. When the virus began to propagate in the presence of the drug, the drug concentration was increased generally 2- to 3-fold. Proviral DNA samples obtained from the lysates of infected cells were subjected to nucleotide sequencing. This drug selection procedure was carried out until the drug concentration reached 5 μM (31-33). In the experiments for selecting drug-resistant variants, MT-4 cells were exploited as target cells since HIV-1 in general replicates at greater levels in MT-4 cells than in MT-2 cells.
Molecular cloning and determination of the nucleotide sequences of HIV-1 strains passaged in the presence of anti-HIV-1 agents were performed as described previously (31). In brief, high molecular-weight DNA was extracted from HIV-1-infected MT-4 cells by using the InstaGene Matrix (Bio-Rad Laboratories, Hercules, Calif.) and was subjected to molecular cloning, followed by sequence determination. The primers used for the first round of PCR with the entire Gag- and protease-encoding regions of the HIV-1 genome were LTR F1 (5′-GATGCTACATATAAGCAGCTGC-3′; SEQ ID NO: 13) and PR12 (5′-CTCGTGACAAATTTCTACTAATGC-3′; SEQ ID NO: 14). The first-round PCR mixture consisted of 1 μl of proviral DNA solution, 10 μl of Premix Taq (Ex Taq Version; Takara Bio Inc., Otsu, Japan), and 10 pmol of each of the first PCR primers in a total volume of 20 μl. The PCR conditions used were an initial 3 min at 95° C., followed by 35 cycles of 40 sec at 95° C., 20 sec at 55° C., and 2 min at 72° C., with a final 10 min of extension at 72° C. The first-round PCR products (1 μl) were used directly in the second round of PCR with primers LTR F2 (5′-GAGACTCTGGTAACTAGAGATC-3′; SEQ ID NO: 15) and Ksma2.1 (5′-CCATCCCGGGCTTTAATTTTACTGGTAC-3′; SEQ ID NO: 16) under the PCR conditions of an initial 3 min at 95° C., followed by 35 cycles of 30 sec at 95° C., 20 sec at 55° C., and 2 min at 72° C., with a final 10 min of extension at 72° C. The second-round PCR products were purified with spin columns (MicroSpin S-400 HR columns; Amersham Biosciences Corp., Piscataway, N.J.), cloned directly, and subjected to sequencing with a model 3130 automated DNA sequencer (Applied Biosystems, Foster City, Calif.).

For a further data set, the system named is MT-2 cells. The data set is described as follows: Cytotoxicity (CC50), MTT assay. As to conditions: human, 7 days. As to the method: The susceptibility of HIV-1LAI to various drugs was determined as previously described with minor modifications. Briefly, MT-2 cells (10^4/ml) were exposed to 100 50% tissue culture infectious doses (TCID50) of HIV-1LAI in the presence or absence of various concentrations of drugs in 96-well microculture plates and were incubated at 37° C. for 7 days. After 100 μl of the medium was removed from each well, 3-(4,5-dimetylthiazol-2-yl)-2,5-diphenyltetrazolium bromide (MTT) solution (10 μl, 7.5 mg/ml in phosphate-buffered saline) was added to each well in the plate, followed by incubation at 37° C. for 2 h. […] All assays were performed in duplicate or triplicate. […] In determining the drug susceptibility of certain laboratory HIV-1 strains, MT-4 cells were employed as target cells as previously described with minor modifications. In brief, MT-4 cells (10^5/ml) were exposed to 100 TCID50 of drug-resistant HIV-1 strains in the presence or absence of various concentrations of drugs and were incubated at 37° C. On day 7 of culture, the supernatants were harvested and the amounts of p24 Gag protein were determined by using a fully automated chemiluminescent enzyme immunoassay system (Lumipulse F: Fujirebio Inc., Tokyo). […] All assays were performed in duplicate or triplicate. PHA-PBMs were derived from a single donor in each independent experiment. Thus, for obtaining the data, three different donors were recruited.
(Tetrazolium dyes change colour on reduction, which living cells bring about.)

As a reminder, the EC50 is the concentration that produces a half-maximal response. Consider `CC(C)CN(C[C@@H](O)[C@H](Cc1ccccc1)NC(=O)O[C@H]1CO[C@H]2OCC[C@H]21)S(=O)(=O)c1ccc(N)cc1` [DRV, darunavir], for which, in the data set on HIV-1DRV^RP20, the EC50 was 0.174 µM.
`COc1ccc(S(=O)(=O)N(CC(C)C)C[C@@H](O)[C@H](Cc2ccccc2)NC(=O)OC2CO[C@H]3OCC(F)(F)[C@@H]23)cc1` (stereo partly drawn) [GRL-04810]: the “concentration in the presence of which HIV-1NL4-3 had acquired an ability to replicate” value with HIV-1NL4-3 (25 passages, initial concentration 0.003 μM, MT-4 cells) was 0.080 µM. The “fold-increased concentration tolerated by selected virus” value in the data set with HIV-1NL4-3 (25 passages, relative to initial concentration 0.003 μM) was determined as 26 fold.
Broadly, the CC50 is the concentration that lowers cell viability or growth by half. Read a low CC50 as harm at low concentration. Take `CC(C)CN(C[C@@H](O)[C@H](Cc1ccccc1)NC(=O)O[C@H]1CO[C@H]2OCC(F)(F)[C@H]21)S(=O)(=O)c1ccc(N)cc1` [GRL-05010]: the “amino acid substitutions in the protease-encoding region of selected HIV-1NL4-3” value with HIV-1NL4-3 (by passage 15) was “M46I and I50V by passage 15 in all 24 clones examined, while N38K was detected in 8 of 24 clones and M36I in 3 clones”. In addition, in the data set with HIV-1NL4-3 (by passage 15, starting at 0.003 μM, MT-4 cells), the “concentration in the presence of which HIV-1NL4-3 attained an ability to replicate” value is 0.037 µM. In addition, in the data set on MT-2 cells, the CC50 worked out at 37 µM.
